Results published in article PMC7000700, “RyR1-targeted drug discovery pipeline integrating FRET-based high-throughput screening and human myofiber dynamic Ca^2+ assays” (Scientific Reports, 2020).

Assays:
[1] = target: RyR2 (Sus scrofa, UniProt A0A5G2R1W3); assay: FLT-FRET between D-FKBP and A-CaM bound to RyR2 in cardiac SR membranes (dose-response); assay type: binding, porcine; set-up: RyR1 in skeletal SR membranes, and RyR2 in cardiac SR membranes; from tissue; host or cells: porcine cardiac left ventricle (crude SR vesicles); settings: RyR2 samples, 30 nM Ca2+
Method: Necessary counter-screens to our pathological RyR1 conditions include evaluating compound effects in healthy conditions and on the cardiac isoform, RyR2. Using the same FRET assay as in HTS, we tested the dose response of key Hits from this screen and the previously HTS-identified RyR1 inhibitor, chloroxine, on healthy (5 mM GSH) and pathological (5 mM GSSG) conditions for both RyR1 in skeletal SR membranes, and RyR2 in cardiac SR membranes.
Skeletal HSR and cardiac CSR (0.4 mg/ml) membranes were independently pre-incubated with 60 nM D-FKBP, for 90 min, at 37 °C, in a solution containing 150 mM KCl, 5 mM GSH, 0.1 mg/mL BSA, 1 µg/mL Aprotinin/Leupeptin, 1 mM DTT and 20 mM PIPES (pH 7.0). To remove unbound D-FKBP, the SR membranes were spun down at 110,000 × g for 20 min, and then resuspended to 1 mg/mL (skeletal HSR) and 2 mg/mL (cardiac CSR) in binding buffer consisting of 150 mM KCl, 5 mM GSSG, 0.1 mg/mL BSA, 1μg/mL Aprotinin/Leupeptin and 20 mM PIPES, pH 7.0. These samples were then incubated with indicated [A-CaM] for 30 min at 22 °C in binding buffer containing 0.065 mM CaCl2 to give 30 nM free Ca^2+ in the presence of 1 mM EGTA (calculated by MaxChelator). This labeled SR sample was applied to the assay plates in 5 μL aliquots using a Multidrop™ Combi reagent dispenser (Thermo Scientific) with a standard-tube. An additional set of the assay plates were loaded with skeletal HSR or cardiac CSR labeled with only D-FKBP (no added A-CaM).
FLT measurements were conducted in a top-read FLT-PR designed and built by Fluorescence Innovations, Inc[33]. AF488 donor fluorescence was excited with a 473-nm microchip laser from Concepts Research Corporation (Belgium, WI), and emission was acquired with 490-nm long-pass and 517/20-nm band-pass filters (Semrock, Rochester, NY).
FLT waveforms for each well were fit based on a one-exponential decay function using least-squares minimization global-analysis software (Fluorescence Innovations, Inc.), as previously described[19],[33]. FRET efficiency (E) was determined as the fractional decrease of donor FLT (τD), due to the presence of acceptor fluorophore (τDA), using the following equation:1 E=1−τDA/τD,

[2] = target: RyR1 (Sus scrofa, UniProt P16960); set-up: RyR1 in skeletal SR membranes; from tissue; host or cells: porcine longissimus dorsi muscle (heavy SR vesicles); method as in PMID 27760856; settings: NIH Clinical Collection screen; cited from earlier work

Chain of RyR2 (A0A5G2R1W3 20-4900): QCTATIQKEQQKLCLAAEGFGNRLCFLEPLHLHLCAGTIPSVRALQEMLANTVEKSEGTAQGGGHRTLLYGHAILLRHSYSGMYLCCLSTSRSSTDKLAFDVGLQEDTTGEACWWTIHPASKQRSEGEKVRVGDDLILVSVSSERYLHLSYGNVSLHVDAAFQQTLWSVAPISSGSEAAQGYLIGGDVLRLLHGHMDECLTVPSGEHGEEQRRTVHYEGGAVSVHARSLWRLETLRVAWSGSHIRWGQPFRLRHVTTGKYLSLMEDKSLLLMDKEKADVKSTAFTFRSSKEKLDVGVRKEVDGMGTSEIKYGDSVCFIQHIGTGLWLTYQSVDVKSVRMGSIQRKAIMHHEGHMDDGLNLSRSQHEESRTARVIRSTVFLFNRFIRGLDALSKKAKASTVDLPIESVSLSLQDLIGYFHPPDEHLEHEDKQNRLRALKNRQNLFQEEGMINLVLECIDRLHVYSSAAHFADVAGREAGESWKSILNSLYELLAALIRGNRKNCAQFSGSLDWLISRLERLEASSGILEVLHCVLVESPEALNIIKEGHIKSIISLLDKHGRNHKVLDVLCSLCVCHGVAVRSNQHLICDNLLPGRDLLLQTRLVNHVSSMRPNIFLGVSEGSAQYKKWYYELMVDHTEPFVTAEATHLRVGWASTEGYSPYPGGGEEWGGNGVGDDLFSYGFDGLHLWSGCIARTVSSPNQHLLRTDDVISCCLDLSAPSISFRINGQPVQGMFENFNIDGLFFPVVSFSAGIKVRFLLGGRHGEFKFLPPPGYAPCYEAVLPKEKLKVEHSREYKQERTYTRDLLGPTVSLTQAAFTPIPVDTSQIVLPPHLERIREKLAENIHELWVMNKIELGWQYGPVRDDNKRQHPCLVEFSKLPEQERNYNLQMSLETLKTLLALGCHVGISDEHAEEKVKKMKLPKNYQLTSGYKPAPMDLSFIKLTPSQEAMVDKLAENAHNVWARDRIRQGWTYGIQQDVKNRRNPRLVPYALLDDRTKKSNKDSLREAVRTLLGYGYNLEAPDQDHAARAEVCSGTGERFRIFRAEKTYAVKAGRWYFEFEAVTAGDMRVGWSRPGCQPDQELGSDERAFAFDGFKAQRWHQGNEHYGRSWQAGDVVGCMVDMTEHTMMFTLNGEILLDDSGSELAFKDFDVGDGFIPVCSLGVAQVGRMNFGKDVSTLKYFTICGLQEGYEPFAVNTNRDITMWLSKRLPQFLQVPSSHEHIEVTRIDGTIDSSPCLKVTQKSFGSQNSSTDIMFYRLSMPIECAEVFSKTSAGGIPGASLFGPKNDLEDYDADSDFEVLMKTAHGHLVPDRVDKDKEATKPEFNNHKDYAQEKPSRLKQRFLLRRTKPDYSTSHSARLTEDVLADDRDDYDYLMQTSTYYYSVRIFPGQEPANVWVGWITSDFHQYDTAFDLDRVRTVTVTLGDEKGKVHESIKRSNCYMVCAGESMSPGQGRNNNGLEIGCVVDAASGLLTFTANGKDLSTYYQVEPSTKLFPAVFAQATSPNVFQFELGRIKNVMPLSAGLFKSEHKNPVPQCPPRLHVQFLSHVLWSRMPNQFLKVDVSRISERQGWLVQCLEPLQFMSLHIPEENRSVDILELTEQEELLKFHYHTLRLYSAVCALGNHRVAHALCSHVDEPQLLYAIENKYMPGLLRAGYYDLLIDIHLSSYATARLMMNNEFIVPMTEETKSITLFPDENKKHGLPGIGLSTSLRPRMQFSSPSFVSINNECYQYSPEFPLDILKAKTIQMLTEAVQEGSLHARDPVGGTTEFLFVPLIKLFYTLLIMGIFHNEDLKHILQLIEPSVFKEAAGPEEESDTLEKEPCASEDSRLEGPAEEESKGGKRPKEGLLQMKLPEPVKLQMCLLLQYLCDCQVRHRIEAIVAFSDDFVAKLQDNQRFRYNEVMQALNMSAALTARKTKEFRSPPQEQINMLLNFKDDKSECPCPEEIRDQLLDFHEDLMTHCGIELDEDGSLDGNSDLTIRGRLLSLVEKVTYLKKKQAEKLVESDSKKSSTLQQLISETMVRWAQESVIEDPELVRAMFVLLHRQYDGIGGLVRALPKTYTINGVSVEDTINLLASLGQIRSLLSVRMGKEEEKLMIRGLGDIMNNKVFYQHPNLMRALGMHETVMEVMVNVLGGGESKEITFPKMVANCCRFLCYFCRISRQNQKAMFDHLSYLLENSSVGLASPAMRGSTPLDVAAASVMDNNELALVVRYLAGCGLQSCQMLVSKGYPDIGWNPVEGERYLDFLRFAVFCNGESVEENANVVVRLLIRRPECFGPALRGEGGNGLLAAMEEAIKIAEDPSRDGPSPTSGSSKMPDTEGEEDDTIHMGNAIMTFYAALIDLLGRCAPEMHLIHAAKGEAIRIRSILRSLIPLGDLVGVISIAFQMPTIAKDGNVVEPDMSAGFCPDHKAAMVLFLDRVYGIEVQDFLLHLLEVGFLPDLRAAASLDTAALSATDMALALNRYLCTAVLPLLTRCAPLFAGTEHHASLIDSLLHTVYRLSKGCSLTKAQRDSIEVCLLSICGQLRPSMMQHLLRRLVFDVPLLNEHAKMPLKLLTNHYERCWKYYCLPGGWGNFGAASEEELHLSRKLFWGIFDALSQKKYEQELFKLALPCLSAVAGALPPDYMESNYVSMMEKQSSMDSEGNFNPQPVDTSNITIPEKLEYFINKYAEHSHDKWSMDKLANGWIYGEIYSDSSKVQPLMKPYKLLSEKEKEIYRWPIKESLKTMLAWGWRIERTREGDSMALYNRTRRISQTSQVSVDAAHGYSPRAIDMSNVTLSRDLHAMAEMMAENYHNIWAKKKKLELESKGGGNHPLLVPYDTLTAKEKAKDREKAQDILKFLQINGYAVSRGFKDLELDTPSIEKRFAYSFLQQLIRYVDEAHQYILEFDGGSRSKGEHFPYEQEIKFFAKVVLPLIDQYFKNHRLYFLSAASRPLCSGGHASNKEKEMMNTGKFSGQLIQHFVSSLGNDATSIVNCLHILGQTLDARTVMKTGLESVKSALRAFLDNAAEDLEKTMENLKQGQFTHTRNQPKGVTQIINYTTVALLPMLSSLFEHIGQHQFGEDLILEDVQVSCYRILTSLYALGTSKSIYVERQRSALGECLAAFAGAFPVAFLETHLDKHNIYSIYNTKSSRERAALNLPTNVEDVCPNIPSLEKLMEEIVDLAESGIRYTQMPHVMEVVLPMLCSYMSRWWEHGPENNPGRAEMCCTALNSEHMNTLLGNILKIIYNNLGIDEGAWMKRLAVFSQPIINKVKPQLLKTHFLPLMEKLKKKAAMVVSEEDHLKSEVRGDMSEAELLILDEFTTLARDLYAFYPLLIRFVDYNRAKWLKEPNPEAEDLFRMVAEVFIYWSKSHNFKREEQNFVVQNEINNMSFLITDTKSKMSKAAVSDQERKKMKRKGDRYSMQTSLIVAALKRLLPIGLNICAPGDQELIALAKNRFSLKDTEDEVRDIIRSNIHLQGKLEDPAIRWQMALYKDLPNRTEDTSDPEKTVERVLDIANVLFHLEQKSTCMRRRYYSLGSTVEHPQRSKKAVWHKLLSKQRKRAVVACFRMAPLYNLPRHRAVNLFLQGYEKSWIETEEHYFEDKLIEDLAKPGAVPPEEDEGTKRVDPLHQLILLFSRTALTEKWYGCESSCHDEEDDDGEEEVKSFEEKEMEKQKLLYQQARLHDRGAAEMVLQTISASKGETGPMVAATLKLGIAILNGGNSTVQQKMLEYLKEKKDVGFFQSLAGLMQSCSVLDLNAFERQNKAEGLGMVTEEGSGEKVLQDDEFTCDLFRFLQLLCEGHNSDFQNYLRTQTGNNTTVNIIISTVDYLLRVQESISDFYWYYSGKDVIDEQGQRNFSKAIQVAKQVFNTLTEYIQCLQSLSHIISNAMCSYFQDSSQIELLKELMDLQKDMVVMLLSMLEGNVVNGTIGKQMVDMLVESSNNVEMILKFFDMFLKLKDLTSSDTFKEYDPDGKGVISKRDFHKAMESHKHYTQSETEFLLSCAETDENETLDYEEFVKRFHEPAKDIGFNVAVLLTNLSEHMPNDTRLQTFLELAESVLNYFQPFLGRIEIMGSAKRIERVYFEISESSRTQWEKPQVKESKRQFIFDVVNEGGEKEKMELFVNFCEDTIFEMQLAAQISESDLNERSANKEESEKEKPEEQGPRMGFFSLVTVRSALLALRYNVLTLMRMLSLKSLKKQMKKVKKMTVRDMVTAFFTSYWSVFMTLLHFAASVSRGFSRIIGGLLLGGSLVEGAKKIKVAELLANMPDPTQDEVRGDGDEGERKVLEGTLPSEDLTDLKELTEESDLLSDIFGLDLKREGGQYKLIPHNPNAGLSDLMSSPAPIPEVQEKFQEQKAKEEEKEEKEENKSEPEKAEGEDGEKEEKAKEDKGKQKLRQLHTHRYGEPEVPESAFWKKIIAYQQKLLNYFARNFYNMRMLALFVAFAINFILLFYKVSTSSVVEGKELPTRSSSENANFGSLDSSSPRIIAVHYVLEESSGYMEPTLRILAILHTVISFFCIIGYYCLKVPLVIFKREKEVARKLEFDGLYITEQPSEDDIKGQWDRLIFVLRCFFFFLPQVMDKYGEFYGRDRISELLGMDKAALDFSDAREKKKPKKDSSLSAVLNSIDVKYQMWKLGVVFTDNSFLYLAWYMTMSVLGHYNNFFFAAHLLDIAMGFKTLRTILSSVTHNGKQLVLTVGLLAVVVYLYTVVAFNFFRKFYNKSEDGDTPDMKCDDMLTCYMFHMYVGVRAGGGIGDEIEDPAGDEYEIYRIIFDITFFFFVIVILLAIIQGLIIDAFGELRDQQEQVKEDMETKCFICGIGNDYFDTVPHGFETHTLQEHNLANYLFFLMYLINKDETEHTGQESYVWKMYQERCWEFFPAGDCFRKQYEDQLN

- Effect on FRET [1]: did not alter FRET
Compound: Oc1c(Cl)cc(Cl)c2cccnc12 [chloroxine]
- Effect on FRET in previous 384-well screen [2]: increased FRET
